From patent US6239151A, “Compounds as inhibitor of tumor necrosis factor alpha release” (Hoffmann-La Roche Inc., priority 1998, dated 2001)

system: LPS-induced TNF-α release (THP1 cells); test: Inhibition of LPS-induced TNF-α release from THP1 cells (ELISA); type: cell-based; details: Homo sapiens, THP-1, LPS 2 mg/ml, 3 hours at 37° C., TNF-α by ELISA, read-out: IC50 (concentration giving 50% inhibition of LPS-induced TNF-α release)
Experimental: THP1 cells were cultivated in RPMI 1640 medium supplemented with antibiotics and 10% foetal calf serum, harvested by centrifugation and diluted to 5×10^5 cells/ml in the above medium supplemented with 20 mM HEPES buffer. Aliquots ([…]) of the cell suspension were plated out on 96 well culture plates and incubated for 0.5 hour at 37° C. prior to the addition of the test compounds. The latter were dissolved in dimethyl sulphoxide (DMSO) to a stock concentration of 1.2 mM which was diluted with phosphate buffered saline/10% DMSO solution to provide test compounds in final concentrations of 10^-9 to 10^-5 M, with each concentration being tested in duplicate. The cells were incubated with the test compounds for 0.5 hour at 37° C., LPS (bacterial lipopolysaccharide) was then added to a concentration of 2 mg/ml and incubation was continued for 3 hours at 37° C. in an atmosphere containing 5% CO2 and at 95% relative humidity. After centrifugation at 260 g for 10 minutes an aliquot of each supernatant was removed and the amount of TNF-α was estimated by ELISA (R & D Systems Europe Ltd., Abingdon, England). The concentration of test compound which brings about 50% inhibition of LPS-induced TNF-α release (IC50) was computed from the dose-response curve.
The results obtained in the foregoing test with representative compounds of formula I are compiled in the following Table.

| SMILES | IC50 [nM] |
| --- | --- |
| CC(C)C[C@@H](C(=O)NN(CC(C)C)C(=O)C(C)O)[C@H](C/C=C/c1ccccc1)C(=O)NO (mixture of isomers) [B, (E)-2(R)-[1(S)-(Hydroxycarbamoyl)-4-phenyl-3-butenyl]-2'-(2(RS)-hydroxypropionyl)-2'-isobutyl-4-methylvalerohydrazide] | 589 |
| CC(C)C[C@@H](C(=O)NN(CC(C)C)C(=O)[C@@H](C)N)[C@H](C/C=C/c1ccccc1)C(=O)NO [A, (E)-2'-(D-Alanyl)-2(R)-[1(S)-(hydroxycarbamoyl)-4-phenyl-3-butenyl]-2'-isobutyl-4-methylvalerohydrazide] | 303 |
| CC(C)C[C@@H](C(=O)NN(CC(C)C)C(=O)Cn1ccnc1)[C@H](C/C=C/c1ccccc1)C(=O)NO [C, (E)-2(R)-[1(S)-(Hydroxycarbamoyl)-4-phenyl-3-butenyl]-2'-[2-(1-imidazolyl)acetyl]-2'-isobutyl-4-methylvalerohydrazide] | 201 |
| CC(C)C[C@@H](C(=O)NN(CC(C)C)C(=O)C1CCNCC1)[C@H](C/C=C/c1ccccc1)C(=O)NO [D, (E)-2(R)-[1(S)-(Hydroxycarbamoyl)-4-phenyl-3-butenyl]-2'-isobutyl-4-methyl-2'-[(4-piperidinyl)carbonyl]valerohydrazide] | 345 |
